Source: patent US9701664B2, “Fused 1,4-dihydrodioxin derivatives as inhibitors of heat shock transcription factor 1” (Cancer Research Technology Limited, priority 2013, dated 2017)

Test system: HSP72 in SK-OV-3 cells
Assay: Cell-based ELISA (Cellisa) assay, SK-OV-3 cells: inhibition of 17-AAG-induced HSP72
Conditions: Homo sapiens; SK-OV-3 cells (Examples 169-218)
Procedure: U2OS cells (5-8×10^4 cells/mL) or SK-OV-3 cells (5-8×10^4 cells/mL) were seeded into 96-well plates and incubated at 37° C. for 48 h. Compounds were then added at a range of concentrations and incubated for 1 h before addition of 17-AAG (250 nM). Cells were then incubated for 18 h. The medium was removed washed 2× with PBS and cells were then fixed with fixing solution (4% paraformaldehyde, 0.3% TritonX-100 in PBS) for 30 min at 4° C. The plates were then washed 2× with PBS before blocking with 5% milk for 30 min at 37° C. After washing the plates 4× with 0.1% Tween-20/deionised water, HSP72 antibody (SPA-810, Enzo Life) was added for 1.5 h at 37° C. Following 4× washes, the plates were incubated with europium-labelled anti-mouse antibody (0.6 ug/ml) in Delfia assay buffer (Perkin Elmer) for 1 h at 37° C. After washing the plates, Delfia enhancement solution was added, shaken for 10 min before reading in the Envision plate reader (Perkin-Elmer) with excitation at 340 nm and emission at 615 nm. The plates were washed again before protein determination using the bicinchoninic acid assay (BCA assay, Pierce Biotechnology). The europium counts were normalised for the amount of protein in each well. The 50% inhibitory concentration value of the compound was then calculated.

| Compound | IC50 [nM] |
| --- | --- |
| Cc1ccc(NC(=O)c2ccc3c(c2)OCCO3)cc1NC(=O)c1ccc2nc(CN3CCN(C(C)C)CC3)ccc2c1 [Example 202, N-(5-(2,3-dihydrobenzo[b][1,4]dioxine-6-carboxamido)-2-methylphenyl)-2-((4-isopropylpiperazin-1-yl)methyl)quinoline-6-carboxamide] | 61 |
| Cc1ccc(NC(=O)c2ccc3c(c2)OCCO3)cc1NC(=O)c1ccc2nc(CN3CCC3)ccc2c1 [Example 203, 2-(azetidin-1-ylmethyl)-N-(5-(2,3-dihydrobenzo[b][1,4]dioxine-6-carboxamido)-2-methylphenyl)quinoline-6-carboxamide] | 23 |
| CCN1CCN(Cc2ccc3cc(C(=O)Nc4cc(NC(=O)c5ccc6c(c5)OCCO6)ccc4C)ccc3n2)CC1 [Example 204, N-(5-(2,3-dihydrobenzo[b][1,4]dioxine-6-carboxamido)-2-methylphenyl)-2-((4-ethylpiperazin-1-yl)methyl)quinoline-6-carboxamide] | 56 |
| Cc1ccc(NC(=O)c2ccc3c(c2)OCCO3)cc1NC(=O)c1ccc2nc(CN3CCCC3C)ccc2c1 (centres unmarked) [Example 205, N-(5-(2,3-dihydrobenzo[b][1,4]dioxine-6-carboxamido)-2-methylphenyl)-2-((2-methylpyrrolidin-1-yl)methyl)quinoline-6-carboxamide] | 65 |
| Cc1ccc(NC(=O)c2ccc3c(c2)OCCO3)cc1NC(=O)c1ccc2nc(CN3CC[C@@H](F)C3)ccc2c1 [Example 206, (R)—N-(5-(2,3-dihydrobenzo[b][1,4]dioxine-6-carboxamido)-2-methylphenyl)-2-((3-fluoropyrrolidin-1-yl)methyl)quinoline-6-carboxamide] | 76 |
| Cc1ccc(NC(=O)c2ccc3c(c2)OCCO3)cc1NC(=O)c1ccc2nc(CN3CC[C@H](F)C3)ccc2c1 [Example 207, (S)—N-(5-(2,3-dihydrobenzo[b][1,4]dioxine-6-carboxamido)-2-methylphenyl)-2-((3-fluoropyrrolidin-1-yl)methyl)quinoline-6-carboxamide] | 80 |
| COC1CCN(Cc2ccc3cc(C(=O)Nc4cc(NC(=O)c5ccc6c(c5)OCCO6)ccc4C)ccc3n2)C1 (centres unmarked) [Example 208, N-(5-(2,3-dihydrobenzo[b][1,4]dioxine-6-carboxamido)-2-methylphenyl)-2-((3-methoxypyrrolidin-1-yl)methyl)quinoline-6-carboxamide] | 53 |
| Cc1ccc(NC(=O)c2ccc3c(c2)OCCO3)cc1NC(=O)c1ccc2nc(CN3CCCCC3)ccc2c1 [Example 209, N-(5-(2,3-dihydrobenzo[b][1,4]dioxine-6-carboxamido)-2-methylphenyl)-2-(piperidin-1-ylmethyl)quinoline-6-carboxamide] | 208 |
| C=Cc1ccc(NC(=O)c2ccc3c(c2)OCCO3)cc1NC(=O)c1ccc2nc(C)ccc2c1 [Example 210, N-(5-(2,3-dihydrobenzo[b][1,4]dioxine-6-carboxamido)-2-vinylphenyl)-2-methylquinoline-6-carboxamide] | 419 |
| O=C(Nc1ccc(Cl)c(NC(=O)c2ccc3nc(OCCN4CCCC4)ccc3c2)c1)c1ccc2c(c1)OCCO2 [Example 211, N-(2-chloro-5-(2,3-dihydrobenzo[b][1,4]dioxine-6-carboxamido)phenyl)-2-(2-(pyrrolidin-1-yl)ethoxy)quinoline-6-carboxamide] | 73 |
| CCN1CCN(Cc2ccc3cc(C(=O)Nc4cc(NC(=O)c5ccc6c(c5)OCCO6)ccc4F)ccc3n2)[C@H](C)C1 [Example 212, (R)—N-(5-(2,3-dihydrobenzo[b][1,4]dioxine-6-carboxamido)-2-fluorophenyl)-2-((4-ethyl-2-methylpiperazin-1-yl)methyl)quinoline-6-carboxamide] | 85 |
| CCN1CCN(Cc2ccc3cc(C(=O)Nc4cc(NC(=O)c5ccc6c(c5)OCCO6)ccc4F)ccc3n2)[C@@H](C)C1 [Example 213, (S)—N-(5-(2,3-dihydrobenzo[b][1,4]dioxine-6-carboxamido)-2-fluorophenyl)-2-((4-ethyl-2-methylpiperazin-1-yl)methyl)quinoline-6-carboxamide] | 57 |
| CCN1CCN(C(C)c2ccc3cc(C(=O)Nc4cc(NC(=O)c5ccc6c(c5)OCCO6)ccc4F)ccc3n2)CC1 (centres unmarked) [Example 214, N-(5-(2,3-dihydrobenzo[b][1,4]dioxine-6-carboxamido)-2-fluorophenyl)-2-(1-(4-ethylpiperazin-1-yl)ethyl)quinoline-6-carboxamide] | 957 |
| CCN1CCN(Cc2ccc3cc(C(=O)Nc4cc(NC(=O)c5ccc6c(c5)OCCO6)ccc4Br)ccc3n2)CC1 [Example 215, N-(2-bromo-5-(2,3-dihydrobenzo[b][1,4]dioxine-6-carboxamido)phenyl)-2-((4-ethylpiperazin-1-yl)methyl)quinoline-6-carboxamide] | 39 |
| O=C(Nc1ccc(Br)c(NC(=O)c2ccc3nc(CN4CCC4)ccc3c2)c1)c1ccc2c(c1)OCCO2 [Example 216, 2-(azetidin-1-ylmethyl)-N-(2-bromo-5-(2,3-dihydrobenzo[b][1,4]dioxine-6-carboxamido)phenyl)quinoline-6-carboxamide] | 55 |
| CC(C)N1CCN(Cc2ccc3cc(C(=O)Nc4cc(NC(=O)c5ccc6c(c5)OCCO6)ccc4F)ccc3n2)[C@@H](C)C1 [Example 217, (S)—N-(5-(2,3-dihydrobenzo[b][1,4]dioxine-6-carboxamido)-2-fluorophenyl)-2-((4-isopropyl-2-methylpiperazin-1-yl)methyl)quinoline-6-carboxamide] | 137 |
| CC(C)N1CCN(Cc2ccc3cc(C(=O)Nc4cc(NC(=O)c5ccc6c(c5)OCCO6)ccc4F)ccc3n2)[C@H](C)C1 [Example 218, (R)—N-(5-(2,3-dihydrobenzo[b][1,4]dioxine-6-carboxamido)-2-fluorophenyl)-2-((4-isopropyl-2-methylpiperazin-1-yl)methyl)quinoline-6-carboxamide] | 80 |
